For twelve compounds, Activity, IC50 and CC50 results are on record in ChEMBL document CHEMBL1158241, “Inhibition of hepatitis B surface antigen secretion on human hepatoma cells. Components from Rubia cordifolia” (J Nat Prod, 1996).

Data set [1] can be described thus: Cytotoxicity against human Hep3B cells at >20 […] by MTT assay. In kind it is cell-based. Conditions: hep 3b2. For orientation: Tetrazolium assays rely on reduction of a dye to a coloured formazan, in cell work by metabolically active cells.
Data set [2] has as its system Hepatitis B virus. The experiment in a line: Antiviral activity against Hepatitis B virus infected in human Hep3B cells assessed as suppression of viral surface antigen secretion after 48 hrs by enzyme immunoassay. In kind it is functional, organism-based, Hep 3B2.
Data set [3] in a line: Cytotoxicity against human Hep3B cells by MTT assay. In kind it is cell-based, Hep 3B2.
In data set [4] the test system is Hepatitis B virus. The data set is described as follows: Antiviral activity against Hepatitis B virus infected in human Hep3B cells assessed as suppression of viral surface antigen secretion at >5 […] after 48 hrs by enzyme immunoassay. In kind it is functional, organism-based. The conditions noted are these: Hep 3B2.

≈ marks a conversion by molar mass, not a printed value. Calls of active or inactive are those of the source. The calls are words filed in the database; no cut-off is given here.

In the case of `COc1c(C(=O)O)c2c(c3ccccc13)OC(C)(C)C=C2`, the Activity entry in data set [1] is listed as “Not Active”. In data set [2], the half-maximal inhibitory concentration (IC50) is 4.5 µg/mL (≈ 15.8 µM).

As to `COc1c(C(=O)OCCC(C)C)c2c(c3ccccc13)OC(C)(C)C=C2`, the midpoint of cytotoxicity in data set [3], the CC50, lay at 10 µg/mL (≈ 28.2 µM). The IC50 in data set [2] came out at 0.8 µg/mL (≈ 2.26 µM).

On to `COC(=O)c1c2c(c3ccccc3c1OCc1ccccc1)OC(C)(C)C=C2`, for which the Activity result in data set [1] is “Not Active”. The IC50 in data set [2] amounted to 1 µg/mL (≈ 2.67 µM).

In the case of `COC(=O)c1c2c(c3ccccc3c1OC(C)=O)OC(C)(C)C=C2` [ACETYLMOLLUGIN], in data set [3], the CC50 came out at 10 µg/mL (≈ 30.6 µM). In addition, in data set [2], the 50% inhibitory concentration (IC50) is 2 µg/mL (≈ 6.13 µM).

With `COC(=O)c1c2c(c3ccccc3c1OC)OC(C)(C)CC2` [DIHYDROMOLLUGIN METHYL ETHER], the result in data set [4] was inactive. This compound registered a CC50 in data set [3] of 7 µg/mL (≈ 23.3 µM).

`COC(=O)c1c2c(c3ccccc3c1O)OC(C)(C)CC2` [DIHYDROMOLLUGIN] displayed a CC50 in data set [3] of 8.2 µg/mL (≈ 28.6 µM). Besides, in data set [2], the IC50 was 2 µg/mL (≈ 6.99 µM).

The compound `COC(=O)c1c(O)c2ccccc2c2occc12` [FUROMOLLUGIN] displayed a CC50 in data set [3] of 11.5 µg/mL (≈ 47.5 µM). Moreover, the half-maximal inhibitory concentration (IC50) in data set [2] is 2 µg/mL (≈ 8.26 µM).

In the case of `COC(=O)c1c(OC)c2ccccc2c2occc12` [METHYLFUROMOLLUGIN], the result in data set [4] was inactive. Besides, in data set [1], the Activity result is “Not Active”.

On to `COC(=O)c1c(OC)c2ccccc2c2oc(=O)ccc12` [METHYLRUBILACTONE], for which the result in data set [4] was inactive. This compound also had a half-maximal cytotoxic concentration (CC50) in data set [3] of 12.5 µg/mL (≈ 44 µM).

`COC(=O)c1c2c(c3ccccc3c1OC)OC(C)(C)C=C2` [MOLLUGIN METHYL ETHER]: the result in data set [4] was inactive. For the same compound, the Activity result in data set [1] is “Not Active”.

Consider `COC(=O)c1c2c(c3ccccc3c1O)OC(C)(C)C=C2` [MOLLUGIN], for which the Activity result in data set [1] is recorded as “Not Active”. For the same compound, in data set [2], the IC50 was 2 µg/mL (≈ 7.03 µM).

For the compound `COC(=O)c1c(O)c2ccccc2c2oc(=O)ccc12` [RUBILACTONE], in data set [4], the result was inactive. The compound further gave a CC50 in data set [3] of 4 µg/mL (≈ 14.8 µM).

As a reminder, the IC50 is the midpoint of a concentration-inhibition curve. In general, CC50 refers to the concentration giving 50% cytotoxicity.
